Dose excreted, CL free and CL data for 4 compounds are collected here from ChEMBL document CHEMBL3526096, “Species differences in biliary clearance and possible relevance of hepatic uptake and efflux transporters involvement” (Drug Metab Dispos, 2013).

A short description of data set [1]: Drug excretion in iv dosed Wistar rat assessed as compound excreted into bile. The conditions noted are these: read-out: Drug excretion. Type of data set: ADME, organism-based.
Data set [2] can be described thus: Drug excretion in iv dosed human assessed as compound excreted into bile after 6 hrs. The conditions noted are these: read-out: Drug excretion. It is filed as ADME, organism-based.
Data set [3] relates to Rattus norvegicus. Nature of the data set: Unbound biliary clearance in iv dosed Wistar rat. Type of data set: ADME, organism-based, Bile. The conditions noted are these: in vivo.
In data set [4] the test system is Rattus norvegicus. Nature of the data set: Total biliary clearance in iv dosed Wistar rat. Type of data set: ADME, organism-based, Bile. The following applies: in vivo.
In data set [5] the test system is Homo sapiens. Briefly: Unbound biliary clearance in iv dosed human after 6 hrs. The following applies: in vivo. It is filed as ADME, organism-based, Bile.
For data set [6], the system named is Homo sapiens. Briefly: Total biliary clearance in iv dosed human after 6 hrs by T-tube method. It is filed as ADME, organism-based, Bile. The conditions noted are these: in vivo.
The nature of data set [7]: Drug excretion in iv dosed human assessed as compound excreted into bile by T-tube method. Type of data set: ADME, organism-based. The conditions noted are these: read-out: Drug excretion.
Data set [8] in a line: Drug excretion in iv dosed rat assessed as compound excreted into bile. It is filed as ADME, organism-based. The conditions noted are these: read-out: Drug excretion.
Data set [9] in a line: Drug excretion in iv dosed dog assessed as compound excreted into bile. Type of data set: ADME, organism-based, Canis lupus familiaris. The following applies: read-out: Drug excretion.
Data set [10] has as its system Homo sapiens. Briefly: Total biliary clearance in human at 200 mg, po after 24 hrs by T-tube method. Type of data set: ADME, organism-based, Bile. The conditions noted are these: in vivo.
Data set [11] concerns Homo sapiens. Nature of the data set: Unbound biliary clearance in human at 200 mg, po after 24 hrs by T-tube method. It is filed as ADME, organism-based, Bile. The conditions noted are these: in vivo.
A short description of data set [12]: Drug excretion in human assessed as compound excreted into bile at 200 mg, po after 24 hrs by T-tube method. Type of data set: ADME, organism-based. The following applies: read-out: Drug excretion.
The test system of data set [13] is Rattus norvegicus. Nature of the data set: Total biliary clearance in iv dosed rat. Type of data set: ADME, organism-based, Bile. The following applies: in vivo.
The test system of data set [14] is Rattus norvegicus. Briefly: Unbound biliary clearance in iv dosed rat. It is filed as ADME, organism-based, Bile. The following applies: in vivo.
Data set [15] has as its system Canis familiaris. Nature of the data set: Unbound biliary clearance in iv dosed dog. It is filed as ADME, organism-based, Canis lupus familiaris, Bile. The conditions noted are these: in vivo.
The nature of data set [16]: Drug excretion in iv dosed human assessed as compound excreted into bile after 7 hrs by duodenal perfusion method. It is filed as ADME, organism-based. The conditions noted are these: read-out: Drug excretion.
The subject of data set [17] is Canis familiaris. Nature of the data set: Total biliary clearance in iv dosed dog. Type of data set: ADME, organism-based, Canis lupus familiaris, Bile. The conditions noted are these: in vivo.
Data set [18] concerns Homo sapiens. Briefly: Unbound biliary clearance in iv dosed human after 7 hrs by duodenal perfusion method. Type of data set: ADME, organism-based, Bile. The following applies: in vivo.
In data set [19] the test system is Homo sapiens. Briefly: Total biliary clearance in iv dosed human after 7 hrs by duodenal perfusion method. It is filed as ADME, organism-based, Bile. The conditions noted are these: in vivo.

Take `Cn1nnnc1SCC1=C(C(=O)O)N2C(=O)[C@@H](NC(=O)[C@H](O)c3ccccc3)[C@H]2SC1` [CEFAMANDOLE]: the dose excreted in data set [1] worked out at 33%. Besides, in data set [2], the dose excreted at 6 h was 0.4%. Moreover, the CL free in the data set on Rattus norvegicus [3] stood at 29.41 mL/min/kg; in the data set with Homo sapiens [5] it was 0.048 mL/min/kg. For the same compound, the CL was found to be 5 mL/min/kg in the data set on Rattus norvegicus [4] and 0.012 mL/min/kg in the data set with Homo sapiens [6].

For the compound `Cc1nnc(SCC2=C(C(=O)O)N3C(=O)[C@@H](NC(=O)Cn4cnnn4)[C@H]3SC2)s1` [CEFAZOLIN], the dose excreted amounted to 0.1% in data set [7], 30% in data set [8] and 2% in data set [9].

Regarding `C=CC1=C(C(=O)O)N2C(=O)[C@@H](NC(=O)/C(=N\OCC(=O)O)c3csc(N)n3)[C@H]2SC1` [CEFIXIME], the CL in the data set with Homo sapiens [10] was determined as 0.14 mL/min/kg; in the data set on Rattus norvegicus [13], 1 mL/min/kg. For the same compound, the CL free in the data set with Homo sapiens [11] worked out at 0.452 mL/min/kg; in the data set on Rattus norvegicus [14], 7.143 mL/min/kg. For the same compound, in data set [8], the dose excreted was 41%. Also, the dose excreted at 24 h in data set [12] came out at 11%.

For `CO[C@@]1(NC(=O)C2SC(=C(C(N)=O)C(=O)O)S2)C(=O)N2C(C(=O)O)=C(CSc3nnnn3C)CS[C@@H]21` (some centres undefined) [CEFOTETAN], the CL free in the data set on Canis familiaris [15] stood at 1.141 mL/min/kg; in the data set with Homo sapiens [18], 0.32 mL/min/kg; with Rattus norvegicus [14], 8.771 mL/min/kg. Further, the dose excreted at 7 h in data set [16] came to 11%. The dose excreted in data set [8] amounted to 48%; in data set [9], 17%. Besides, the CL was 0.696 mL/min/kg in the data set with Canis familiaris [17], 0.048 mL/min/kg in the data set on Homo sapiens [19] and 6.14 mL/min/kg in the data set on Rattus norvegicus [13].
